# Data reported in PMC4198181, “Gold(I) Complexes of 9-Deazahypoxanthine as Selective Antitumor and Anti-Inflammatory Agents” (PLoS ONE, 2014).
# Key:
# [1] = system: G361 malignant melanoma cells; experiment: MTT in vitro cytotoxicity, G361; format: cell-based, human; conditions: 24 h treatment, read-out: IC50±S.E., G361
# Procedure: (§1) In vitro cytotoxic activity was determined by the MTT assay in human breast adenocarcinoma (MCF7; ECACC no. 86012803), human osteosarcoma (HOS; ECACC no. 87070202), lung carcinoma (A549; ECACC no. 86012804), malignant melanoma (G361; ECACC no. 88030401), cervix epitheloid carcinoma (HeLa; ECACC no. 93021013), ovarian carcinoma (A2780; ECACC no. 93112519), cisplatin-resistant ovarian carcinoma (A2780R; […] ECACC no 105092802) cancer cell lines, purchased from European Collection of Cell Cultures (ECACC). […] The primary culture of human hepatocytes (HEP220, batch number HEP220819) was obtained from Biopredic International (France). The culture medium was Williams and HAM's F-12 (1∶1) supplemented with penicillin, streptomycin, ascorbic acid, linoleic acid, holo-transferin, ethanolamine, glucagon, insulin, dexamethasone, pyruvate, glucose, glutamine, amphotericin. The medium was enriched for plating with 2% foetal calf serum (v/v). The medium was exchanged for a serum-free medium the day after and the culture was stabilized for additional 24 h. Thereafter, the cells were ready for treatments. […] The MTT assay was performed spectrophotometrically at 540 nm (TECAN, Schoeller Instruments LLC). The cytotoxicity data were expressed as the percentage of viability, where 100% represented the treatments with vehicle (0.1% DMF or 0.1% DMSO). The cytotoxicity data from the cancer cell lines were acquired from three independent experiments (conducted in triplicate) using cells from different passages. The IC50 values were calculated from viability curves. The results are presented as arithmetic means±standard error of the mean (S.E.).
# [2] = system: A2780R ovarian carcinoma cells resistant to cisplatin; experiment: MTT in vitro cytotoxicity, A2780R; format: cell-based, human; conditions: 24 h treatment, MTT; read-out: IC50±S.E., A2780R
# Procedure: as §1
# [3] = system: λ-carrageenan-induced hind paw edema; experiment: Carrageenan-induced hind paw edema; format: in vivo, Wistar-SPF rats
# Procedure: Wistar-SPF (6–8 weeks male) rats were obtained from AnLab, Ltd. (Prague, Czech Republic). The animals were kept in plexiglass cages at the constant temperature of 22±1°C and relative humidity of 55±5% for at least 1 week before the experiment. They were given food and water ad libitum. All the experimental procedures were performed according to the National Institutes of Health (NIH) Guide for the Care and Use of Laboratory Animals. In addition, all the tests were conducted under the guidelines of the International Association for the Study of Pain [61]. After a one-week adaptation period, male Wistar-SPF rats (200–250 g) were randomly assigned to five groups (n = 7) of the animals in the study. The first, control group, received 25% DMSO (v/v in water, intraperitoneal; i.p.). The next three groups were pretreated with complexes 2, 4 and 5, and involved into the carrageenan-treatment. The fifth group was treated with a non-steroidal anti-inflammatory drug Indomethacin (5 mg/kg), which served as a positive control group (Indomethacin + carrageenan).
# The carrageenan-induced hind paw edema model was used for the determination of anti-inflammatory activity. Animals were i.p. pretreated with complexes 2, 4, and 5 (the dosages of the individual complexes were adjusted to contain the same amount of gold as in 10 mg/kg dose of Auranofin), Indomethacin (5 mg/kg), or 25% DMSO (v/v in water) 30 min prior to the injection of 1% λ-carrageenan solution (50 µL) into the plantar side of right hind paws of the rats. The paw volume was measured immediately after the carrageenan injection (this value was set-up as baseline value for the hind paw volume) and during the next 6 h after the administration of the edematogenic agent using a plethysmometer (model 7159, Ugo Basile, Varese, Italy). The degree of swelling was evaluated as a percentage of the change of the volume of the right hind paw after the carrageenan treatment from the baseline volume. A non-steroidal anti-inflammatory drug Indomethacin was used as a positive control and the obtained data were also compared with the previously reported profile of antiedematous activity for Auranofin [38]. After 6 h, the animals were sacrificed and the edematous feet were dissected, the tissue from the plantar parts was extracted, fixed and stained by a standard hematoxylin/eosin (HE) staining for cytological evaluation of polymorphonuclear cells infiltration.
# The statistically significant differences between individual groups during anti- inflammatory testing were evaluated using a one-way ANOVA test for statistical analysis, followed by Tukey's post-hoc test for multiple comparisons. GraphPad Prism 5.02 (GraphPad Software Inc., San Diego, CA, USA) was used to perform the analysis. The results are presented as arithmetic means±S.E. values.
# [4] = i.p., dose equivalent in gold to 10 mg/kg Auranofin
SMILES,IC50 [1],IC50 [2],"antiedematous effect compared with Auranofin ([3]; after 180 min, p<0.001, Auranofin profile from ref 38)","overall antiedematous / anti-inflammatory activity [3, 4]","antiedematous activity profile up to 180 min after carrageenan ([3]; i.p., dose equivalent in gold to 10 mg/kg Auranofin, 30 min before carrageenan)","antiedematous activity after 180 min ([3]; i.p., dose equivalent in gold to 10 mg/kg Auranofin, up to 6 h)"
"CC(C)Oc1ncnc2cc[n]([Au])c12.c1ccc(P(c2ccccc2)c2ccccc2)cc1 [complex 2, [Au(L2)(PPh3)]]",3.4 ± 0.1 µM,5.3 ± 0.4 µM,even better than that of gold-containing metallodrug Auranofin,significant anti-inflammatory effects,very similar pharmacological profiles of complexes 2 and 4 with the reference drug Indomethacin,elimination of hind paw swelling
[Au][n]1ccc2ncnc(OCCc3ccccc3)c21.c1ccc(P(c2ccccc2)c2ccccc2)cc1 [complex 5],3.5 ± 0.2 µM,5 ± 0.3 µM,–,inactive,–,–
